How the values were obtained:
Assay in all cases: fluorescence titration, multiwavelength global analysis
[1] = tested on: ds26 (DNA, duplex) CAATCGGATCGAATTCGATCCGATTG; details: 100 mM KCl, 10 mM K-phosphate pH 7.0, 295 K
[2] = tested on: hTel22 (DNA, G4) AGGGTTAGGGTTAGGGTTAGGG; details: 100 mM KCl, 10 mM K-phosphate pH 7.0, 295 K, 1:1 complex
[3] = tested on: hTel45 (DNA, G4) GGGTTAGGGTTAGGGTTAGGGTTAGGGTTAGGGTTAGGGTTAGGG; details: 100 mM KCl, 10 mM K-phosphate pH 7.0, 295 K
[4] = tested on: c-myc22 (DNA, G4) GAGGGTGGGGAGGGTGGGGAAG; details: 100 mM KCl, 10 mM K-phosphate pH 7.0, 295 K, 1:1 complex

With `CCCNC(=O)c1ccc2[nH]c3c([nH]c2c1)c1c(=O)n(CCCN(C)C)c(=O)c2ccc4c(=O)n(CCCN(C)C)c(=O)c3c4c21` the logK ([1]; per site of 1:2 complex, cumulative 1:2 15.25, 1:4 29.15) was 7.6, the logK ([2]; ligand dimerization (logK 6.6) included, cumulative 1:2 logK 14.04) was 7.64 ± 0.16 and the logK ([3]; cumulative constant of 1:2 (DNA:ligand) complex, 1:4 28.6, dimerization included) was 14.41 ± 0.05. For the same compound, the logK ([4]; dimerization (logK 6.6) included, cumulative 1:2 14.74) was 6.89 ± 0.05.

Work on `CN(C)CCCN1C(=O)c2ccc3c4c(c(NCCCCCCCNC(=O)c5ccc6[nH]c7c([nH]c6c5)c5c(=O)n(CCCN(C)C)c(=O)c6ccc8c(=O)n(CCCN(C)C)c(=O)c7c8c65)cc(c24)C1=O)C(=O)N(CCCN(C)C)C3=O` yielded a logK ([1]; 1:1 complex, cumulative 1:2 12.95, 1:3 18.35) of 6.50 ± 0.03, a logK ([2]; cumulative 1:2 15.71, 2:1 (DNA:dyad) 14.14) of 8.93 ± 0.07 and a logK ([3]; 1:1 complex, cumulative 1:2 12.94, 1:4 25.52, 2:1 13.24) of 7.91 ± 0.07. It also gave a logK ([4]; cumulative 1:2 13.78) of 6.16 ± 0.02.

In the case of `CN(C)CCCN1C(=O)c2ccc3c4c(c(NCc5cn(CCCNC(=O)c6ccc7[nH]c8c([nH]c7c6)c6c(=O)n(CCCN(C)C)c(=O)c7ccc9c(=O)n(CCCN(C)C)c(=O)c8c9c76)nn5)cc(c24)C1=O)C(=O)N(CCCN(C)C)C3=O`, the logK ([1]; 1:1 complex, cumulative 1:2 12.48, 1:3 17.70) was 5.82 ± 0.02, the logK ([2]; cumulative 1:2 14.68, 1:3 20.37) was 7.67 ± 0.05 and the logK ([3]; cumulative constant of 1:2 (DNA:dyad) complex, 1:4 26.88, 2:1 11.55) was 13.80 ± 0.05. The logK ([4]; cumulative 1:2 14.36, 2:1 11.69) was 7.77 ± 0.12.

Source: paper PMC11852925 (2025)
